Test results taken from paper PMC3652196, “Pharmacometrics of 3-Methoxypterostilbene: A Component of Traditional Chinese Medicinal Plants” (Evidence-based Complementary and Alternative Medicine : eCAM, 2013).

What was measured:
[1] = test system: α-glucosidase from Saccharomyces cerevisiae; experiment: α-Glucosidase inhibition colorimetric assay (PNPG); type: biochemical; conditions: 0 to 200 μg/mL, n = 6
[2] = humans; cited from earlier work

Oc1ccc(/C=C/c2cc(O)cc(O)c2)cc1 [resveratrol]
α-Glucosidase inhibition (in words) [1]: clear positive concentration-dependent inhibition relationship
bioavailability [2]: < 1%
